Assay results from patent US9815836B2, “Macrocyclic compounds as IRAK1/4 inhibitors and uses thereof” (Merck Patent GmbH, priority 2015, dated 2017).
Where two headings read alike, the source gives them in different places.

Assays:
IRAK4 = IRAK4 (Homo sapiens (Human), UniProt Q9NWZ3); assay: IRAK4 enzymatic assay (ADP-Glo luminescence); assay type: biochemical; conditions: human purified recombinant His-TEV-IRAK4 (1-460), ATP 2 μM, STK1-biotin peptide 300 nM
Protocol: IRAK4 is a human purified recombinant enzyme (His-TEV-IRAK4 (1-460)).
In this assay, IRAK4 hydrolyses ATP, autophosphorylates and phosphorylates a Serine/Threonine generic peptidic substrate (STK: 61ST1BLC from CisBio International). Measurement of IRAK-4 inhibition is performed in 384-well format based on a luminescence assay (ADP-Glo™ Kinase Assay from Promega). Purified human recombinant IRAK4 (0.3 μg/ml) and serial diluted compounds in DMSO (range of concentration from 10 μM to 0.5 nM) or controls (1% DMSO) are incubated for 15 minutes at RT in assay buffer containing 50 mM Hepes pH 7.0, Fatty acid-free BSA 0.1%, Dithiothreitol (DTT) 2 mM, MgCl2 10 mM, EGTA 0.5 mM, Triton X-100 0.01%, MnCl2 5 mM. The kinase reaction is then initiated by the addition of ATP (2 μM) and the peptidic substrate STK1-biotin peptide (300 nM). After 2 hours of incubation at RT, the reaction is stopped and the unconsumed ATP depleted by the addition of ADP-Glo™ Reagent according to supplier instructions. After 40 minutes of incubation at RT, the Kinase Detection Reagent is then added to the assay plate according to supplier instructions. After 20 minutes of incubation at RT, the luminescence signal is measured with a plate-reading luminometer (PerkinElmer Envision or equivalent reader).

IRAK1 = IRAK1 (Homo sapiens (Human), UniProt P51617); assay: IRAK1 enzymatic assay (ADP-Glo luminescence); assay type: biochemical
Protocol: In this assay, IRAK1 hydrolyses ATP and autophosphorylates. Measurement of IRAK-1 inhibition is performed in 384-well format based on luminescence assay (ADP-Glo™ Kinase Assay from Promega). Purified human recombinant IRAK1 ([…]) and serial diluted compounds in DMSO (range of concentration from 10 μM to 0.5 nM) or controls (1% DMSO) are incubated for 15 minutes at RT in assay buffer containing 50 mM Hepes pH 7.0, Fatty acid-free BSA 0.1%, Dithiothreitol (DTT) 2 mM, MgCl2 10 mM, EGTA 0.5 mM, Triton X-100 0.01%. The kinase reaction is then initiated by the addition of ATP at a concentration of 1μM. After 2 hours of incubation at RT, the reaction is stopped and the unconsumed ATP depleted by the addition of ADP-Glo™ Reagent according to supplier instructions. After 40 minutes of incubation at RT, the Kinase Detection Reagent is then added to the assay plate according to supplier instructions. After 20 minutes of incubation at RT, the luminescence signal is measured with a luminometer (PerkinElmer Envision or equivalent reader).

[1] = human purified recombinant His-TEV-IRAK1 (194-712), ATP 1 μM, read-out: IRAK1 IC50

Chain of IRAK1 (P51617 194-712): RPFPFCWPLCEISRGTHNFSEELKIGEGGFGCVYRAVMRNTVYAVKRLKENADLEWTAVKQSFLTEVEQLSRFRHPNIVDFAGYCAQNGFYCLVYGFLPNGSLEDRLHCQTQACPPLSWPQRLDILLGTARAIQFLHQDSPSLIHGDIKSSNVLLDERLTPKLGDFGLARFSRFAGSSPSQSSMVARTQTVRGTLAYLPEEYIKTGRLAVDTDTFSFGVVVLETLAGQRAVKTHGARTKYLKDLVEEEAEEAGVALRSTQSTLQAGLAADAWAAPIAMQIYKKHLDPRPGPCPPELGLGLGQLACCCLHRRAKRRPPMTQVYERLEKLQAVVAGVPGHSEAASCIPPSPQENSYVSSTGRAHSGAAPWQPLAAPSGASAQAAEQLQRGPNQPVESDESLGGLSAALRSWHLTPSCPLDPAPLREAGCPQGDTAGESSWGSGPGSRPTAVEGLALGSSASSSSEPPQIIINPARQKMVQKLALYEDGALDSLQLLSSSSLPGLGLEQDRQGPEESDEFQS
Chain of IRAK4 (Q9NWZ3 whole entry): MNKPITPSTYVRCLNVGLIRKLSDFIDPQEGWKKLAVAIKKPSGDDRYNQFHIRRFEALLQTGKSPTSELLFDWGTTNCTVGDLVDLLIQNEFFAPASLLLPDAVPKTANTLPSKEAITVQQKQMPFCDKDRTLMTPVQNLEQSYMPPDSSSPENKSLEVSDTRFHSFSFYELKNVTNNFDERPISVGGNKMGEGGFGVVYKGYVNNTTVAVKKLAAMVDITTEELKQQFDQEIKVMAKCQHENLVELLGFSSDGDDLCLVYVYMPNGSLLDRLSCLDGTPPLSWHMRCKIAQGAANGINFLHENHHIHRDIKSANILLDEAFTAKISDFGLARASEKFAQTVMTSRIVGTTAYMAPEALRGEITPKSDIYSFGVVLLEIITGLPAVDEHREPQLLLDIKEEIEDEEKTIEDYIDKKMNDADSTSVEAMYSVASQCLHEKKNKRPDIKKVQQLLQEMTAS

IC50 (IRAK1; [1]) | Compound | IC50 (IRAK4) | IC50 (IRAK1)
< 100 nM | Cn1cc2c(n1)C(=O)NCCCC#CCn1cc(cn1)-c1cccc(n1)C(=O)N2 [Compound 38, 16-methyl-4,5,12,15,16,19,25-heptaazatetracyclo[19.3.1.1^2,^5.0^1^4,^1^8]hexacosa-1(24),2(26),3,14,17,21 (25),22-heptaen-7-yne-13,20-dione] | < 100 nM | 
 | O=C1Nc2cn(C3CCOCC3)nc2C(=O)NCCSCCCn2cc(cn2)-c2cccc1n2 [Compound 13, 6-(oxan-4-yl)-9-thia-4,5,12,15,16,19,25-heptaazatetracyclo[19.3.1.1^2,^5.0^1^4,^1^8]hexacosa-1(24),2(26),3,14,17,21(25),22-heptaene-13,20-dione] | < 100 nM | 100 to 1000 nM
 | (9E)-17-methyl-4,5,13,16, 17,20,26-heptaazatetracyclo[20.3.1.1^2,^5.0^1^5,^1^9]heptacosa-1(25),2(27),3,9,15,18,22(26),23-octaene-14,21-dione [Compound 34] | < 100 nM | 
 | Cn1cc2c(n1)C(=O)NCCCCn1cc(cn1)-c1cccc(n1)C(=O)N2 [Compound 4, 4-methyl-4,5,10,13,14, 17,23-heptaazatetracyclo[17.3.1.1^2,^5.0^12,^1^6]tetracosa-1(22),2(24),3,12,15,19(23),20-heptaene-11,18-dione] | 1000 to 5000 nM | 1000 to 5000 nM
 | Cn1cc2c(n1)C(=O)NCCC/C=C\Cn1cc(cn1)-c1cccc(n1)C(=O)N2 [Compound 37, (7Z)-16-methyl-4,5,12,15,16,19,25-heptaazatetracyclo[19.3.1.1^2,^5.0^1^4,^1^8]hexacosa-1(24),2(26),3,7,14,17,21(25),22-octaene-13,20-dione] | < 100 nM | 100 to 1000 nM
 | CN(C)CCN1CCC(n2cc3c(n2)C(=O)NCCCCCCn2cc(cn2)-c2cccc(n2)C(=O)N3)CC1 [Compound 23, 6-{1-[2-(dimethylamino)ethyl]piperidin-4-yl}-4,5,12,15,16,19,25-heptaazatetracyclo[19.3.1.1^2,^5.0^1^4,^1^8]hexacosa-1(24),2(26),3,14,17,21(25),22-heptaene-13,20-dione] | < 100 nM | 100 to 1000 nM
 | Cn1cc2c(n1)C(=O)NCCCCCCn1cc(cn1)-c1cccc(n1)C(=O)N2 [Compound 3, 16-methyl-4,5,12,15,16,19,25-heptaazatetracyclo[19.3.1.1^2,^5.0^1^4,^1^8]hexacosa-1(24),2(26),3,14,17,21(25),22-heptaene-13,20-dione] | < 100 nM | 100 to 1000 nM
 | O=C1Nc2cn(C3CCNCC3)nc2C(=O)NCCCCCCn2cc(cn2)-c2cccc1n2 [Compound 16, 16-(piperidin-4-yl)-4,5,12,15,16,19,25-heptaazatetracyclo[19.3.1.1^2,^5.0^1^4,^1^8]hexacosa-1 (24),2(26),3,14,17,21(25),22-heptaene-13,20-dione] | < 100 nM | 100 to 1000 nM
 | 15-methyl-4,5,11,14,15,18,24-heptaazatetracyclo[18.3.1.1^2,^5.0^13,^1^7]pentacosa-1(23),2(25),3,13,16,20(24),21-heptaene-12,19-dione [Compound 2] | 100 to 1000 nM | 
 | O=C1Nc2cn(C3CCOCC3)nc2C(=O)NCCCCCCn2cc(cn2)-c2cccc1c2 [Compound 24, 16-(oxan-4-yl)-4,5,12,15,16,19-hexaazatetracyclo[19.3.1.1^2,^5.0^1^4,^1^8]hexacosa-1(24),2(26),3,14,17,21 (25),22-heptaene-13,20-dione] | < 100 nM | 100 to 1000 nM
 | 17-methyl-4,5,13,16,17,20,26-heptaazatetracyclo[20.3.1.1^2,^5.0^1^5,^1^9]heptacosa-1(25),2(27),3,15,18,22(26),23-heptaene-14,21-dione [Compound 35] | < 100 nM | 
> 5000 nM | O=C1Nc2cn(C3CCOCC3)nc2C(=O)NCCCCCn2cc(cn2)-c2cccc1c2 [Compound 6, 15-(oxan-4-yl)-4,5,11,14,15,18-hexaazatetracyclo[18.3.1.1^2,^5.0^13,^1^7]pentacosa-1(23),2(25),3,13,16,20(24),21-heptaene-12,19-dione] | > 5000 nM | 
 | Cn1cc2c(n1)C(=O)NCC1CN(CCO1)CCn1cc(cn1)-c1cccc(n1)C(=O)N2 (centres unmarked) [Compound 7, 18-methyl-11-oxa-4,5,8,14,17,18,21,27-octaazapentacyclo[21.3.1.1^2,^5.1^8,^12.0^1^6,^2^0]nonacosa-1 (26),2(29),3,16,19,23(27),24-heptaene-15,22-dione] | < 100 nM | 1000 to 5000 nM
 | O=C1Nc2cn(C3CCN(C(=O)C4CC4(F)F)CC3)nc2C(=O)NCCCCCCn2cc(cn2)-c2cccc1n2 (centres unmarked) [Compound 18, 16-[1-(2,2-difluorocyclopropanecarbonyl)piperidin-4-yl]-4,5,12,15,16,19,25-heptaazatetracyclo[19.3.1.1^2,^5.0^1^4,^1^8]hexacosa-1(24),2(26),3,14,17,21 (25),22-heptaene-13,20-dione] | < 100 nM | 100 to 1000 nM
 | CN1CCCNC(=O)c2nn(C)cc2NC(=O)c2cccc(n2)-c2cnn(c2)CC1 [Compound 11, 8,16-dimethyl-4,5,8,12,15,16,19,25-octaazatetracyclo[19.3.1.1^2,^5.0^1^4,^1^8]hexacosa-1(24),2(26),3,14,17,21(25),22-heptaene-13,20-dione] | < 100 nM | 1000 to 5000 nM
 | Cn1cc2c(n1)C(=O)NC/C=C/CCCn1cc(cn1)-c1cccc(n1)C(=O)N2 [Compound 29, (9E)-16-methyl-4,5,12,15,16,19,25-heptaazatetracyclo[19.3.1.1^2,^5.0^1^4,^1^8]hexacosa-1(24),2(26),3,9,14,17,21(25),22-octaene-13,20-dione] | < 100 nM | 100 to 1000 nM
 | 9,10-dihydroxy-17-methyl-4,5,13,16,17,20,26-heptaazatetracyclo[20.3.1.1^2,^5.0^1^5,^1^9]heptacosa-1(25),2(27),3,15,18,22(26),23-heptaene-14,21-dione [Compound 36] | < 100 nM | 
 | Cn1cc2c(n1)C(=O)NCCCC(O)C(O)Cn1cc(cn1)-c1cccc(n1)C(=O)N2 (centres unmarked) [Compound 32, 7,8-dihydroxy-16-methyl-4,5,12,15,16,19,25-heptaazatetracyclo[19.3.1.1^2,^5.0^1^4,^1^8]hexacosa-1(24),2(26),3,14,17,21(25),22-heptaene-13,20-dione] | < 100 nM | 100 to 1000 nM
 | Cn1cc2c(n1)C(=O)NCC/C=C/CCn1cc(cn1)-c1cccc(n1)C(=O)N2 [Compound 28, (8E)-16-methyl-4,5,12,15,16,19,25-heptaazatetracyclo[19.3.1.1^2,^5.0^1^4,^1^8]hexacosa-1(24),2(26),3,8,14,17,21(25),22-octaene-13,20-dione] | < 100 nM | 100 to 1000 nM
 | Cn1cc2c(n1)C(=O)NCCC(O)C(O)CCn1cc(cn1)-c1cccc(n1)C(=O)N2 (centres unmarked) [Compound 33, 8,9-dihydroxy-16-methyl-4,5,12,15,16,19,25-heptaazatetracyclo[19.3.1.1^2,^5.0^1^4,^1^8]hexacosa-1(24),2(26),3,14,17,21(25),22-heptaene-13,20-dione] | < 100 nM | 100 to 1000 nM
 | CS(=O)(=O)N1CCC(n2cc3c(n2)C(=O)NCCCCCCn2cc(cn2)-c2cccc(n2)C(=O)N3)CC1 [Compound 17, 6-(1-methanesulfonylpiperidin-4-yl)-4,5,12,15,16,19,25-heptaazatetracyclo[19.3.1.1^2,^5.0^1^4,^1^8]hexacosa-1(24),2(26),3,14,17,21(25),22-heptaene-13,20-dione] | < 100 nM | 100 to 1000 nM
